Results: patent US10774064B2 (Cadent Therapeutics, Inc., priority 2016, dated 2020)

target: T1, small-conductance Ca2+-activated K+ channels (SK channels, subtype 2) (Homo sapiens, UniProt Q9H2S1); assay: whole-cell patch-clamp of ionic current through SK2 channels in HEK293 cells (SC100); format: cell-based; details: concentration that increases the basal current by 100%; HEK293 cells expressing SK2 channels
T1 construct: expressed in transfected cells; host or cells: HEK293
How it was run: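 SC100, the concentration doubling basal current (a 100% increase), was taken from SK2 currents recorded by whole-cell patch-clamp in SK2-expressing HEK293 cells.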

| SC100 | SMILES |
| --- | --- |
| ++ (++ means 200 nM-1000 nM) | Cc1cc(C)n(-c2cc(OCc3ccc(F)cc3)cc(NC3CCC(F)(F)CC3)n2)n1 [Compound 263, N-(4,4-difluorocyclohexyl)-6-(3,5-dimethyl-1H-pyrazol-1-yl)-4-((4-fluorobenzyl)oxy)pyridin-2-amine] |
| + (+ means >1 uM) | Cc1cc(C)n(-c2cc(C(C)O)cc(NC3CCC(F)(F)CC3)n2)n1 (stereo not shown) [Compound 207, 1-(2-((4,4-difluorocyclohexyl)amino)-6-(3,5-dimethyl-1H-pyrazol-1-yl)pyridin-4-yl)ethan-1-ol] |
| ++ (++ means 200 nM-1000 nM) | Cc1cn(-c2nc(NC3CCC(F)(F)CC3)cc(OC3COC3)n2)nc1CF [Compound 304, N-(4,4-difluorocyclohexyl)-2-(3-(fluoromethyl)-4-methyl-1H-pyrazol-1-yl)-6-(oxetan-3-yloxy)pyrimidin-4-amine] |
| + (+ means >1 uM) | Cc1cc(C)n(-c2cc(O)cc(NC3CCC(F)(F)CC3)n2)n1 [Compound 276, 2-((4,4-difluorocyclohexyl)amino)-6-(3,5-dimethyl-1H-pyrazol-1-yl)pyridin-4-ol] |
| + (+ means >1 uM) | Cc1cc(C)n(-c2nc(N[C@H]3CCCC(F)(F)C3)cc([C@@H](C)O)n2)n1 (single isomer, unassigned) [Compound 354] |
| + (+ means >1 uM) | Cc1ccn(-c2nc(NC3CCC(F)(F)CC3)cc(N3CC(C)(O)C3)n2)n1 [Compound 140, 1-(6-((4,4-difluorocyclohexyl)amino)-2-(3-methyl-1H-pyrazol-1-yl)pyrimidin-4-yl)-3-methylazetidin-3-ol] |
| + (+ means >1 uM) | Cc1cc(C)n(-c2nc(NC3CCC(F)(F)C3)cc(C(C)O)n2)n1 (stereo not shown) [Compound 225, 1-(6-((3,3-difluorocyclopentyl)amino)-2-(3,5-dimethyl-1H-pyrazol-1-yl)pyrimidin-4-yl)ethan-1-ol] |
| + (+ means >1 uM) | Cc1cc(C)n(-c2nc(NC3CCC(F)(F)CC3)cc([C@H]3COCC[C@H]3O)n2)n1 (relative stereo) [Compound 257, (−)-3-(6-((4,4-difluorocyclohexyl)amino)-2-(3,5-dimethyl-1H-pyrazol-1-yl)pyrimidin-4-yl)tetrahydro-2H-pyran-4-ol] |
| ++ (++ means 200 nM-1000 nM) | CCc1cc(NC2CCC(F)(F)CC2)nc(-n2nc(C)cc2C)n1 [Compound 171, N-(4,4-difluorocyclohexyl)-2-(3,5-dimethyl-1H-pyrazol-1-yl)-6-ethylpyrimidin-4-amine] |
| ++ (++ means 200 nM-1000 nM) | CC(=O)N1CCN(c2cc(NC3CCC(F)(F)CC3)nc(-n3nc(C)cc3C)n2)CC1 [Compound 102, 1-(4-(6-((4,4-difluorocyclohexyl)amino)-2-(3,5-dimethyl-1H-pyrazol-1-yl)pyrimidin-4-yl)piperazin-1-yl)ethan-1-one] |
| ++ (++ means 200 nM-1000 nM) | COc1cc(NC2CCC(F)(F)CC2)nc(-c2nc(C)cs2)n1 [Compound 361, N-(4,4-difluorocyclohexyl)-6-methoxy-2-(4-methylthiazol-2-yl)pyrimidin-4-amine] |

same assay, conditions: whole-cell patch-clamp, HEK293 cells expressing SK2 channels; concentration that increases the basal current by 100%

| SC100 (μM) | SMILES |
| --- | --- |
| + (+ means >1 uM) | Cc1csc(-c2cc(-c3nc(C)cs3)nc(NC3CCC(F)(F)CC3)n2)n1 [NSSy6704, N-(4,4-difluorocyclohexyl)-4,6-bis(4-methylthiazol-2-yl)pyrimidin-2-amine] |
| + (+ means >1 uM) | Cc1cc(NC2CCC(F)(F)CC2)nc(-n2ccc(C3CCCC3)n2)n1 [IN11250-017-P1, 2-(3-cyclopentyl-1H-pyrazol-1-yl)-N-(4,4-difluorocyclohexyl)-6-methylpyrimidin-4-amine] |
| ++ (++ means 200 nM-1000 nM) | Cc1csc(-c2nc(NC3CCCCC3)cc(C(C)O)n2)n1 (stereo not shown) [IN10880-093-P1] |
| ++ (++ means 200 nM-1000 nM) | Cc1ccn(-c2cc(CN3CCOC3=O)cc(NC3CCC(F)(F)CC3)n2)n1 [IN10991-091-P1] |
| + (+ means >1 uM) | C=Cc1ccn(-c2nc(C)cc(NC3CCC(F)(F)CC3)n2)n1 [IN11250-031-P1] |
| + (+ means >1 uM) | Cc1csc(-c2nc(NC3CCC(F)(F)CC3)cc(N3CCCC3)n2)n1 [IN10882-014-P1] |
| ++ (++ means 200 nM-1000 nM) | COCc1cc(-c2nc(C)cs2)nc(NC2CCC(F)(F)CC2)n1 [NSSy6711, N-(4,4-difluorocyclohexyl)-4-(methoxymethyl)-6-(4-methylthiazol-2-yl)pyrimidin-2-amine] |
| + (+ means >1 uM) | N#CCc1ccn(-c2nc(NC3CCC(F)(F)CC3)cc(N3CC4(COC4)C3)n2)n1 [NSSy5848] |
| ++ (++ means 200 nM-1000 nM) | Cc1ccn(-c2cc(C3CCNCC3)cc(NC3CCC(F)(F)CC3)n2)n1 [NSSy6897, N-(4,4-difluorocyclohexyl)-6-(3-methyl-1H-pyrazol-1-yl)-4-(piperidin-4-yl)pyridin-2-amine] |
| + (+ means >1 uM) | CC(=O)c1cc(NC2CCC(F)(F)CC2)cc(-c2nc(C)cs2)c1 [IN11104-059-P1, 1-(3-((4,4-difluorocyclohexyl)amino)-5-(4-methylthiazol-2-yl)phenyl) ethan-1-one] |
| +++ (+++ means <200 nM) | Cc1csc(-c2nc(NC3CCC(F)(F)CC3)cc(N3CCCOCC3)n2)n1 [IN10864-034.P1] |
| + (+ means >1 uM) | COC(=O)NCCOc1c(NC2CCC(F)(F)CC2)nc(-c2nc(C)cs2)[nH]c1=O [IN11125-065-P1, methyl (2-((4-((4,4-difluorocyclohexyl)amino)-6-hydroxy-2-(4-methylthiazol-2-yl)pyrimidin-5-yl)oxy)ethyl)carbamate] |
| +++ (+++ means <200 nM) | Cc1csc(-c2cc(CN(C)C=O)cc(NC3CCC(F)(F)CC3)n2)n1 [IN11133-069-P1] |
| + (+ means >1 uM) | Cc1cc(C)n(-c2nc(NC3CCCCC3)cc(C(C)O)n2)n1 (stereo not shown) [IN10973-008-P1] |
| + (+ means >1 uM) | Cc1ccn(-c2nc(NC(C)C)cc(N3CCOC(CO)C3)n2)n1 (stereo not shown) [IN10882-057-P1] |
| + (+ means >1 uM) | Cc1ccn(-c2nc(NC3CCC(F)(F)CC3)cc(N(C)C3CCOC3)n2)n1 (stereo not shown) [IN10984-043-P1] |
| + (+ means >1 uM) | COCCOc1cc(-n2ccc(C)n2)nc(NC2CCC(F)(F)CC2)n1 [NSSy6675] |
| ++ (++ means 200 nM-1000 nM) | CC(=O)N1CCC(c2cc(NC3CCC(F)(F)CC3)nc(-n3ccc(C)n3)n2)CC1 [NSSy6369] |
| + (+ means >1 uM) | COc1cc(NC2CCC(F)CC2)nc(-c2nc(C)cs2)n1 (stereo not shown) [IN11067-072-P1] |

| SC100 (μM) | SMILES |
| --- | --- |
| ++ (++ means 200 nM-1000 nM) | Cc1nn(-c2nc(NC3CCC(F)(F)CC3)cc(N3CCOCC3)n2)c(C)c1F [NSSy7011] |
| + (+ means >1 uM) | Cc1csc(-c2ncc(C)c(NC3CCC(F)(F)CC3)n2)n1 [IN11130-076-P1, N-(4,4-difluorocyclohexyl)-5-methyl-2-(4-methylthiazol-2-yl)pyrimidin-4-amine] |
| + (+ means >1 uM) | CC(O)c1cc(-n2ccc(C(F)(F)F)n2)nc(NC2CCC(F)(F)CC2)n1 (stereo not shown) [NSSy6614] |
| + (+ means >1 uM) | Cc1ccn(-c2nc(NC3CCC(F)(F)CC3)cc(OCCC#N)n2)n1 [IN11030-095-P1] |
| + (+ means >1 uM) | CCOc1cc(NC2CCC(F)(F)CC2)nc(-c2nc(C)cs2)n1 [IN11055-015-P1] |
| ++ (++ means 200 nM-1000 nM) | COCc1cc(NC2CCC(F)(F)CC2)nc(-n2ccc(C3CC3)n2)n1 [NSSy6880] |
| ++ (++ means 200 nM-1000 nM) | Cc1csc(-c2nc(NC3CCC(F)(F)CC3)cc(C(C)(C)O)n2)n1 [IN11030-083-P1, 2-(6-((4,4-difluorocyclohexyl)amino)-2-(4-methylthiazol-2-yl)pyrimidin-4-yl) propan-2-ol] |
| + (+ means >1 uM) | Cc1csc(-c2nc(NC3CCC(F)(F)CC3)cc(C(C)S(C)(=O)=O)n2)n1 (stereo not shown) [IN10973-053-P1, N-(4,4-difluorocyclohexyl)-6-(1-(methylsulfonyl)ethyl)-2-(4-methylthiazol-2-yl)pyrimidin-4-amine] |
| + (+ means >1 uM) | COC(=O)N1CC(Oc2cc(NC3CCC(F)(F)CC3)ncn2)C1 [NSSy6061, methyl 3-((6-((4,4-difluorocyclohexyl)amino)pyrimidin-4-yl)oxy) azetidine-1-carboxylate] |
| ++ (++ means 200 nM-1000 nM) | Cc1csc(-c2nc(NC3CCC(F)(F)CC3)cc(N3CCC(CO)C3)n2)n1 (stereo not shown) [IN10882-020-P1] |
| + (+ means >1 uM) | Cc1cc(NC2CCC(F)(F)CC2)nc(CC#N)n1 [IN11273-018-P1, 2-(4-((4,4-difluorocyclohexyl)amino)-6-methylpyrimidin-2-yl) acetonitrile] |
| ++ (++ means 200 nM-1000 nM) | FC1(F)CCC(Nc2nccc(-n3ccc(C4CC4)n3)n2)CC1 [NSSy6945, 4-(3-cyclopropyl-1H-pyrazol-1-yl)-N-(4,4-difluorocyclohexyl)pyrimidin-2-amine] |
| + (+ means >1 uM) | Cc1ccn(-c2cc(N3CC4CCCC4C3)nc(NC3CCC(F)(F)CC3)n2)n1 (stereo not shown) [NSSy6584] |
| + (+ means >1 uM) | COC(C)c1cc(-n2ccc(C)n2)nc(NC2CCC(F)(F)CC2)n1 (stereo not shown) [NSSy6651] |
| ++ (++ means 200 nM-1000 nM) | Cc1ccn(-c2nc(NC3CCC(F)(F)CC3)cc(N3CC(F)(F)OC(F)(F)C3)n2)n1 [IN11030-044-P1] |
| + (+ means >1 uM) | Cc1cc(C)n(-c2cc(NC3CCC(F)(F)CC3)nc(N3CCOCC3)c2)n1 [IN10991-067-P1, N-(4,4-difluorocyclohexyl)-4-(3,5-dimethyl-1H-pyrazol-1-yl)-6-morpholinopyridin-2-amine] |
| + (+ means >1 uM) | COc1c(NC2CCC(F)(F)CC2)nc(-c2nc(C)cs2)nc1OCCO [IN11111-023-P1] |
| +++ (+++ means <200 nM) | Cc1ccn(-c2cc(COc3ccc(C(N)=O)nn3)cc(NC3CCC(F)(F)CC3)n2)n1 [NSSy6451] |

| SMILES | SC100 (μM) |
| --- | --- |
| Cc1csc(-c2nc(NC3CCCCC3)cc(N3CCN(C4COC4)CC3)n2)n1 [NSSy6149] | ++ (++ means 200 nM-1000 nM) |
